Source: patent publication US9334269B2, “Carboxamides as inhibitors of voltage-gated sodium channels” (AMGEN INC., priority 2010, dated 2016)

Target: T1, human Nav1.7 (hNav1.7) (Homo sapiens, UniProt Q15858)
T1 construct: expressed in transfected cells
Experiment: hNav1.7 whole-cell patch-clamp electrophysiology (automated PatchXpress 7000A or manual) in stably expressing 293 cells
Format: cell-based
Summary of the method: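 Stably transfected 293 cells lacking endogenous sodium channels; peak current evoked by depolarizing pulses during increasing compound concentrations, automated at ~20% fractional inactivation, or manually at −140 mV (resting) and ~20% inactivation. Block taken at steady state, corrected for rundown; IC50 by Hill fit.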

[1] = human Nav1.7 stably expressed in 293 cells, whole-cell patch clamp, average IC50 from Hill fit

T1 sequence (Q15858 whole entry): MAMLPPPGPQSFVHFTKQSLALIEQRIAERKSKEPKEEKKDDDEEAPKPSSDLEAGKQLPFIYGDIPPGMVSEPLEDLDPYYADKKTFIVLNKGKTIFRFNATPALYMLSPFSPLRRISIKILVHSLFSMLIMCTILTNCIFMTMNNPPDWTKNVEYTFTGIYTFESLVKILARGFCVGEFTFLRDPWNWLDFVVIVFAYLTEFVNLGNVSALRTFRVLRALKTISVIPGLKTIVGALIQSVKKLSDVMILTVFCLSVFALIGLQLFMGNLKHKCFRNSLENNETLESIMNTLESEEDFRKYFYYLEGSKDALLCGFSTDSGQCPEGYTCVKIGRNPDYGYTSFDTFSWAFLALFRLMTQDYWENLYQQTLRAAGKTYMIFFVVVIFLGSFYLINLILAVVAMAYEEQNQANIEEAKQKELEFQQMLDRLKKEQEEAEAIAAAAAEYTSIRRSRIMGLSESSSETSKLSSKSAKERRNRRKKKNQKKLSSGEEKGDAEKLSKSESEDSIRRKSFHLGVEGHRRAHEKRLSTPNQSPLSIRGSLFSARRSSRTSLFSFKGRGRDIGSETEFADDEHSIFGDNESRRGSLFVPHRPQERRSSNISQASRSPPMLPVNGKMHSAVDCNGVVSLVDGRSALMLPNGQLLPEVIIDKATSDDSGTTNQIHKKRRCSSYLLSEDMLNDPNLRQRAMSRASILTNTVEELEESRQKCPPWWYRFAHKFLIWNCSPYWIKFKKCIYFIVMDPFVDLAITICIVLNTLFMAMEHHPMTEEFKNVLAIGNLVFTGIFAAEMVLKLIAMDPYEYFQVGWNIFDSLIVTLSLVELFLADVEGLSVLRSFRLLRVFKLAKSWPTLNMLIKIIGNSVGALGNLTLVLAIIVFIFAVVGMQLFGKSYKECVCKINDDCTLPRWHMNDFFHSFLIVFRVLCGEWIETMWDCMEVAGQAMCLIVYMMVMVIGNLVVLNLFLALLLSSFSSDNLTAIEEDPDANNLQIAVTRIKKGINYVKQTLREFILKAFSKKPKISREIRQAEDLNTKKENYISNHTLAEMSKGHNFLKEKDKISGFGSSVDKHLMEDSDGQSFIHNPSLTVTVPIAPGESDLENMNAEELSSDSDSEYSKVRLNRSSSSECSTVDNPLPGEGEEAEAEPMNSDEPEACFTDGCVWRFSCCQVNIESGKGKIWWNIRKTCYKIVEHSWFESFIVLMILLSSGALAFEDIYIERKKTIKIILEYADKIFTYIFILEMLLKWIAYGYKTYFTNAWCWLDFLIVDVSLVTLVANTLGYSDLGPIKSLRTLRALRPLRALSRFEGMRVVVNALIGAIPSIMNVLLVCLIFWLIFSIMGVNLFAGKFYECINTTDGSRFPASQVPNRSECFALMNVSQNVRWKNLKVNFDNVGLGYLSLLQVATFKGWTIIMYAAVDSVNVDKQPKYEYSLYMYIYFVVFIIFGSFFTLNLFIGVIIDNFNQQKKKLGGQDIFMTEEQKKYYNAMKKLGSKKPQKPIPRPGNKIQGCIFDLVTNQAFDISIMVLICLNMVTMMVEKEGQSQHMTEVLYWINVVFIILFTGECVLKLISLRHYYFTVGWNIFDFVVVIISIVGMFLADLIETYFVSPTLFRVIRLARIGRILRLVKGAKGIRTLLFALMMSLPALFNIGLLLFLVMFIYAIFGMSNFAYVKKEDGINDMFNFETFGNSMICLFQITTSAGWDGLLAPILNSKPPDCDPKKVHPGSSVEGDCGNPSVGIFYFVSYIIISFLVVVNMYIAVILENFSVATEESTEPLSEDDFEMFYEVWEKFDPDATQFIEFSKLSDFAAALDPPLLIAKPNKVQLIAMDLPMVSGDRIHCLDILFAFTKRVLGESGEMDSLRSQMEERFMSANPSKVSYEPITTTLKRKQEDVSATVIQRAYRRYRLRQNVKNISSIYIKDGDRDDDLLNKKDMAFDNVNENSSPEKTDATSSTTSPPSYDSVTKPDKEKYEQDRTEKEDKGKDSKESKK

Row | SMILES | IC50 (average IC50, human Nav1.7) | IC50 (average IC50) | further results
1 | CNC(=O)c1cccc(Nc2ncnc(N3CCC(OCc4cccc(C(F)(F)F)c4)CC3)n2)c1 [Example 239] | 10.8 µM | – | –
2 | CN(C)C(=O)c1cccc(Nc2ncnc(N3CCC(OCc4ccc(OC(F)(F)F)cc4)CC3)n2)c1 [Example 240] | 11.1 µM | – | –
3 | CNC(=O)c1cccc(Nc2ncnc(N3CC(COCc4ccc(Cl)cc4)C3)n2)c1 [Example 241] | 11.1 µM | – | –
4 | CNC(=O)c1cccc(Nc2ncnc(N3CC(COc4cccc(F)c4)C3)n2)c1 [Example 242] | 11.2 µM | – | –
5 | CNC(=O)c1cccc(Nc2ncnc(N3CCc4ccccc4C3)n2)c1 [Example 243] | 11.5 µM | – | –
6 | CNC(=O)c1cccc(Nc2ncnc(N3CC(COc4cccc(OC)c4)C3)n2)c1 [Example 244] | 12 µM | – | –
7 | CNC(=O)c1cccc(Nc2ncnc(N3CCC(C#N)(c4ccc(F)cc4)CC3)n2)c1 [Example 245] | 12.5 µM | – | –
8 | CCCc1noc(C2CCN(c3ncnc(Nc4cccc(C(=O)NC)c4)n3)CC2)n1 [Example 246] | 12.7 µM | – | –
9 | CNC(=O)c1cccc(Nc2ncnc(N3CC(COc4ccccc4Cl)C3)n2)c1 [Example 247] | 12.8 µM | – | –
10 | CNC(=O)c1cccc(Nc2ncnc(N3CCC(c4ccc(C#N)c(OC(F)(F)F)c4)CC3)n2)c1 [Example 248] | 12.9 µM | – | –
11 | CNC(=O)c1cccc(Nc2ncnc(N3CCC(c4ccc(Cl)cc4)CC3)n2)c1 [Example 249] | 13.1 µM | – | –
12 | CNC(=O)c1cccc(Nc2ncnc(N3CCC(Sc4ccc(C)cc4)CC3)n2)c1 [Example 250] | 13.1 µM | – | –
13 | CNC(=O)c1cccc(Nc2ncnc(N3CC(COc4ccccc4F)C3)n2)c1 [Example 251] | 13.8 µM | – | –
14 | CNC(=O)c1cccc(Nc2ncnc(N3CCc4c(cccc4OCCOC)C3)n2)c1 [Example 252] | 15 µM | – | –
15 | CNC(=O)c1cccc(Nc2ncnc(N3CC(COc4cccc5ccccc45)C3)n2)c1 [Example 253] | 15.2 µM | – | –
16 | CNC(=O)c1cccc(Nc2ncnc(NCc3nc(-c4ccccc4)no3)n2)c1 [Example 254] | 15.7 µM | – | –
17 | CNC(=O)c1cccc(Nc2ncnc(N3CC(COc4ccc(Cl)c5cccnc45)C3)n2)c1 [Example 255] | 16 µM | – | –
18 | CNC(=O)c1cccc(Nc2ncnc(N3CC(Oc4cccc(C(F)(F)F)c4F)C3)n2)c1 [Example 256] | 16.7 µM | – | –
19 | CNC(=O)c1cccc(Nc2ncnc(N3CCC(Nc4ccccc4)CC3)n2)c1 [Example 257] | 16.9 µM | – | –
20 | CNC(=O)c1cccc(Nc2ncnc(N3CC(COc4ccc(C#N)cc4)C3)n2)c1 [Example 258] | 16.9 µM | – | –
21 | CNC(=O)c1cccc(Nc2ncnc(N3CCC4(CC3)OCc3ccccc34)n2)c1 [Example 259] | 17.1 µM | – | –
22 | CNC(=O)c1cccc(Nc2ncnc(NCCCOc3cccc(F)c3)n2)c1 [Example 260] | 17.6 µM | – | –
23 | CNC(=O)c1cccc(Nc2ncnc(N3CCC(COCC4CC4)CC3)n2)c1 [Example 261] | 17.7 µM | – | –
24 | CNC(=O)c1cc(Cl)cc(Nc2ncnc(N3CC(Oc4ccc(F)cc4)C3)n2)c1 [Example 262] | 17.8 µM | – | –

Row | SMILES | IC50 (average IC50, human Nav1.7) | IC50 (average IC50) | further results
25 | CNC(=O)c1cccc(Nc2ncnc(N3CC(C)(Oc4ccccc4)C3)n2)c1 [Example 263] | – | 18.1 µM | –
26 | CNC(=O)c1cccc(Nc2ncnc(N3CC(Oc4ccc(C5CCCC5)cc4)C3)n2)c1 [Example 264] | – | 18.9 µM | –
27 | CNC(=O)c1cccc(Nc2ncnc(N3CCc4oc(-c5ccccc5)cc4C3)n2)c1 [Example 265] | – | 19.2 µM | –
28 | CNC(=O)c1cc(Nc2ncnc(N3CC(Oc4ccc(F)cc4)C3)n2)ccc1C [Example 266] | – | 19.7 µM | –
29 | Cc1c(Nc2ncnc(N3CCC(OCc4ccc(OC(F)(F)F)cc4)CC3)n2)cccc1C(N)=O [Example 267] | – | 20.9 µM | –
30 | CNC(=O)c1cccc(Nc2ncnc(N3CCc4c(cnn4-c4ccccc4)C3)n2)c1 [Example 268] | – | 20.9 µM | –
31 | CNC(=O)c1cccc(Nc2ncnc(N3CCc4cccc(C(F)(F)F)c4C3)n2)c1 [Example 269] | – | 21 µM | –
32 | CNC(=O)c1cccc(Nc2ncnc(N3CC(Oc4ccc(F)cc4)C3)n2)c1F [Example 270] | – | 21.1 µM | –
33 | CNC(=O)c1cccc(Nc2ncnc(N3CCN(c4ccc(F)c(Cl)c4)CC3)n2)c1 [Example 271] | – | 21.4 µM | –
34 | CNC(=O)c1cccc(Nc2ncnc(N3CC(OCc4ccc(F)cc4)C3)n2)c1 [Example 272] | – | 21.7 µM | –
35 | CNC(=O)c1cccc(Nc2ncnc(N3CC(C)(COc4ccccc4)C3)n2)c1 [Example 273] | – | 22.1 µM | –
36 | CNC(=O)c1cccc(Nc2ncnc(N3CC(Oc4c(F)cccc4F)C3)n2)c1 [Example 274] | – | 22.1 µM | –
37 | CNC(=O)c1cccc(Nc2ncnc(N3CCc4cc(OCC(F)(F)F)ccc4C3)n2)c1C [Example 275] | – | 22.6 µM | –
38 | CNC(=O)c1cccc(Nc2ncnc(N3CC(COc4ccccc4C(F)(F)F)C3)n2)c1 [Example 276] | – | 23.6 µM | –
39 | CNC(=O)c1cccc(Nc2ncnc(N3CCC(OCc4cccc(OC(F)(F)F)c4)CC3)n2)c1 [Example 277] | – | 25.4 µM | –
40 | CNC(=O)c1cccc(Nc2nccc(N3CC(Oc4ccc(Cl)c(Cl)c4)C3)n2)c1 [Example A, 3-(4-(3-(3,4-dichlorophenoxy)azetidin-1-yl)pyrimidin-2-ylamino)-N-methylbenzamide] | – | – | IC50 [1]: 0.78 µM
41 | CNC(=O)c1cccc(Nc2ccnc(N3CC(Oc4ccc(Cl)cc4F)C3)c2)c1 [Example AA, 3-((2-(3-(4-chloro-2-fluorophenoxy)-1-azetidinyl)-4-pyridinyl)amino)-N-methylbenzamide] | – | – | IC50 [1]: 7.15 µM
42 | CNC(=O)c1cccc(Nc2nccc(N3CC(Oc4ccc(Cl)cc4Cl)C3)n2)c1 [Example AAA, 3-(4-(3-(2,4-dichlorophenoxy)azetidin-1-yl)pyrimidin-2-ylamino)-N-methylbenzamide] | – | – | IC50 [1]: 0.52 µM
43 | CNC(=O)c1cccc(Nc2ncnc(N3CC(Oc4ccc(Cl)cc4F)C3)c2F)c1 [Example AB, 3-((6-(3-(4-chloro-2-fluorophenoxy)-1-azetidinyl)-5-fluoro-4-pyrimidinyl)-amino)-N-methylbenzamide] | – | – | IC50 [1]: > 30 µM
44 | CNC(=O)c1cccc(Nc2ccnc(NCCCOc3ccc(OC(F)(F)F)cc3)n2)c1 [Example AC, N-methyl-3-((2-((3-(4-(trifluoromethoxy)phenoxy)propyl)amino)-4-pyrimidinyl)amino)benzamide] | – | – | IC50 [1]: 1.17 µM
45 | CNC(=O)c1cccc(Nc2ncnc(N3CCC(OCc4ccc(OC(F)(F)F)cc4)CC3)n2)c1C [Example AD, N,2-dimethyl-3-((4-(4-((4-(trifluoromethoxy)benzyl)oxy)-1-piperidinyl)-1,3,5-triazin-2-yl)amino)benzamide] | – | – | IC50 [1]: 28.6 µM
46 | CNC(=O)c1cccc(Oc2ncnc(N3CC(Oc4ccc(Cl)cc4F)C3)n2)c1 [Example AE, 3-((4-(3-(4-chloro-2-fluorophenoxy)-1-azetidinyl)-1,3,5-triazin-2-yl)oxy)-N-methylbenzamide] | – | – | IC50 [1]: > 30 µM
47 | CNC(=O)c1cccc(Nc2cccc(N3CC(Oc4ccc(F)cc4)C3)c2)c1 [Example AF, 3-((3-(3-(4-fluorophenoxy)-1-azetidinyl)phenyl)amino)-N-methylbenzamide] | – | – | IC50 [1]: 9.53 µM
48 | CNC(=O)c1cccc(Nc2cccc(N3CC(Oc4ccc(Cl)cc4F)C3)c2)c1 [Example AG, 3-((3-(3-(4-chloro-2-fluorophenoxy)-1-azetidinyl)phenyl)amino)-N-methylbenzamide] | – | – | IC50 [1]: > 30 µM

The next lines start with results.

Row | IC50 (average IC50, human Nav1.7) | IC50 (average IC50) | SMILES | further results
49 | – | 26 µM | CNC(=O)c1cccc(Nc2ncnc(N3CCCC(Oc4cccc(Cl)c4)C3)n2)c1 (stereo not shown) [Example 278] | –
50 | – | 26.4 µM | CNC(=O)c1cccc(Nc2ncnc(N3CCc4ccc(Cl)cc4C3)n2)c1 [Example 279] | –
51 | – | 27.7 µM | CNC(=O)c1cccc(Nc2ncnc(N(C)Cc3nc(-c4ccccc4)no3)n2)c1 [Example 280] | –
52 | – | 27.9 µM | CNC(=O)c1cccc(Nc2ncnc(N3CCc4cccc(OC)c4C3)n2)c1 [Example 281] | –
53 | – | > 30 µM | CNC(=O)c1cc(F)cc(Nc2ncnc(NCCCOc3ccc(OC(F)(F)F)cc3)n2)c1 [Example 282] | –
54 | – | > 30 µM | CNC(=O)c1ccc(OC)c(Nc2ncnc(N3CC(Oc4ccc(Cl)cc4)C3)n2)c1 [Example 283] | –
55 | – | > 30 µM | CNC(=O)c1cccc(Nc2nc(C)nc(N3CC(Oc4ccc(F)cc4)C3)n2)c1 [Example 284] | –
56 | – | > 30 µM | CNC(=O)c1cccc(Nc2ncc(F)c(N3CC(Oc4ccc(F)cc4)C3)n2)c1 [Example 285] | –
57 | – | > 30 µM | CNC(=O)c1cccc(Nc2ncnc(NCc3cn4cc(C)ccc4n3)n2)c1 [Example 286] | –
58 | – | > 30 µM | CNC(=O)c1cccc(Nc2ncnc(NCCc3nnc(-c4ccc(C)s4)o3)n2)c1 [Example 287] | –
59 | – | > 30 µM | CNC(=O)c1cccc(Nc2ncnc(NCCc3nc4cc(Cl)ccc4[nH]3)n2)c1 [Example 288] | –
60 | – | > 30 µM | CNC(=O)c1cccc(Nc2ncnc(NCc3noc(C(=O)NC4CC4)n3)n2)c1 [Example 289] | –
61 | – | > 30 µM | CCN1C(=O)C2(CCN(c3ncnc(Nc4cccc(C(=O)NC)c4)n3)CC2)c2ccccc21 [Example 290] | –
62 | – | > 30 µM | NC(=O)c1cc(Nc2ncnc(N3CC(Oc4ccc(F)cc4)C3)n2)ccc1F [Example 291] | –
63 | – | > 30 µM | CNC(=O)c1cccc(Nc2ncnc(N3CCc4cc(C(O)C(F)(F)F)ccc4C3)n2)c1 (stereo not shown) [Example 292] | –
64 | – | > 30 µM | Cc1c(Nc2ncnc(N3CCc4cc(Br)ccc4C3)n2)cccc1C(N)=O [Example 293] | –
65 | – | > 30 µM | CNC(=O)c1cccc(Nc2ncnc(N3CCC(CCCc4ccccc4)CC3)n2)c1 [Example 294] | –
66 | – | > 30 µM | Cc1ccc(N2CCN(c3ncnc(Nc4ccc(F)c(C(N)=O)c4)n3)CC2)cc1C [Example 295] | –
67 | – | > 30 µM | CNC(=O)c1cccc(Nc2ncnc(N3CCC(OCC(C)C)CC3)n2)c1 [Example 296] | –
68 | – | > 30 µM | CNC(=O)c1cccc(Nc2ncnc(N3CC(Oc4ccccc4C#N)C3)n2)c1 [Example 297] | –
69 | – | > 30 µM | CNC(=O)c1cccc(Nc2ncnc(N3CCc4ccc(C(F)(F)F)cc4C3)n2)c1 [Example 298] | –
70 | – | > 30 µM | CNC(=O)c1cccc(Nc2ncnc(N3CCc4cc(C#N)ccc4C3)n2)c1 [Example 299] | –
